Experimental data from patent publication US9023853B2, “Janus kinase 2 (JAK2) inhibitor for the treatment of lupus” (Cephalon, Inc., priority 2010, dated 2015).
“And” between values parts separate entries of the source, which are not always exact repeats. Equal entries are not always repeated. “Also recorded” adds a separate entry of the source.

Key:
Format in all cases: in vivo, mouse
IFNα = assay: Serum IFNα at EOS in NZM mice; details: CTX 50 mg/kg once weekly ip
Procedure: (§1) Age mated, female, NZM or NZW/LacJ, mice were matured for the study of lupus nephritis for a total of 7 months or 210 days at which time urine was collected for proteinuria detection. Mice with 0.5-1.0 mg/ml of urine protein as determined by an optical density-based total protein precipitation assay and cross-checked for 30-300 mg/dl of protein as determined by a stick assay were considered proteinuria positive and selected for study entry. Groups were normalized to contain a Gaussian distribution of proteinuria positive animals (i.e., ⅓ low proteinuria, ⅓ medium, ⅓ high) then randomized between groups before ear marking and taking baseline measures including urine and serum collections. A total of five mice from the total population were randomly selected for baseline kidney histology evaluation. Treatments and tests for each group are as described in FIG. 12. Briefly, with a minimum of 10 mice per group, COMPOUND A was administered at 100 mg/kg or 55 mg/kg, both twice a day and orally. […] Vehicle included 3% DMSO, 10% Solutol and 87% PBS. […] End-stage lupus nephritis was evaluated by histopathology and scored by a board certified pathologist for the assessment of total renal damage in diseased animals using the scoring method described by Smith et al (Smith, Dong et al. 2007). […] Day-98 or “end of treatment/study” represents 310 days of age for the NZM animals.

NZM mice [1] = assay: Renal histopathology kidney IC-GN scoring in NZM mice; details: for B: Glomerular Cellularity / C: Glomerular Necrosis / D: Glomerular Sclerosis / E: Interstitial Infiltration / F: Tubular Atrophy / G: Interstitial Fibrosis / H: Vasculitis: NZM individual mouse; for Glomerular Cellularity / Glomerular Necrosis / Glomerulosclerosis / Interstitial Fibrosis / Interstitial Infiltration / Tubular Atrophy / Vasculitis: NZM kidney score (grade 0-5), mean
Procedure: (§2) For histological analyses, the left kidney and lung (NZM model only) from each animal was removed and fixed in 10% buffered neutral 10% formalin (EMD) for 48 hours on an orbital rocker at 25° C., then washed overnight with running dH2O and stored in 70% ethanol at 4° C. until ready to be processed. Kidney stains used for histological analyses included hematoxylin and eosin (H&E), Periodic Acid Schiff (PAS) and Trichrome stains (Wistar Institute, Philadelphia, Pa.). All 3 stained sections were used by the pathologist for scoring purposes. All histological scoring was performed blinded and by an independent board certified veterinary medical pathologist (Julie Engiles, VMD, DACVP; University of Pennsylvania). Multiple stains were used to determine score values. Images in FIGS. 8, 19 and 20 show worst affected area of section selected blindly by the pathologist.
Kidney IC-GN Scoring Method (Smith, Dong et al. 2007):
1. […]
2. […]
3. […]
4. […]
5. […]
6. […]
7. […]
Also considered effacement of the glomerular tuft by PAS positive, Trichrome negative material necrosis. • Glomerular sclerosis was defined by increased fibroplasia or fibrosis within the glomerular tuft or capsule. […] Pharmacodynamic (PD) Analysis
as §1

NZM mice [2] = assay: Lung histopathology in NZM mice; details: CTX 50 mg/kg once weekly ip
Procedure: as §2, with “Multiple stains were used to determine score values. Images in FIGS. 8, 19 and 20 show worst affected area of section selected blindly by the pathologist.” left out
(§3) Age mated, female, NZM or NZW/LacJ, mice were matured for the study of lupus nephritis for a total of 7 months or 210 days at which time urine was collected for proteinuria detection. Mice with 0.5-1.0 mg/ml of urine protein as determined by an optical density-based total protein precipitation assay and cross-checked for 30-300 mg/dl of protein as determined by a stick assay were considered proteinuria positive and selected for study entry. […] End-stage lupus nephritis was evaluated by histopathology and scored by a board certified pathologist for the assessment of total renal damage in diseased animals using the scoring method described by Smith et al (Smith, Dong et al. 2007). […]

plasma cells = assay: Spleen plasma cells by flow cytometry in NZM mice; details: cyclophosphamide 50 mg/kg once weekly ip
Procedure: Antibodies used for flow cytometry consisted of anti-mouse CD138-APC (eBioscience, San Diego, Calif.), anti-mouse CD19-FITC (eBioscience, San Diego, Calif.), anti-mouse CD38-PE (eBioscience, San Diego, Calif.) and anti-mouse CD45R/B220-Cyc (eBioscience, San Diego, Calif.), Rat IgG1-APC isotype control (eBioscience, San Diego, Calif.), Rat IgG2a-PE isotype control (eBioscience, San Diego, Calif.). All samples were analyzed using an Accuri C6 Flow Cytometer. Complete media was used for all experiments involving the ex vivo culture of splenocytes for all Elispot experiments. Complete media consisted of RPMI1640 (Cellgro, Manassas, Va.), plus 1% Pen-Strep (Cellgro, Manassas, Va.), 1% L-Gln (Cellgro, Manassas, Va.), 1% NEAA (Cellgro, Manassas, Va.), β-ME (Cellgro, Manassas, Va.), plus 10% FBS (Cellgro, Manassas, Va.).
Washed, RBC-lysed splenocytes were stained for plasma cell markers as previously used in published reports (Neubert, Meister et al. 2008). As used herein the term “plasma cell” will refer to the following immunophenotype definition: Plasma cells were defined as live CD19-negative, CD45R/B220-negative, CD138-positive, CD38-positive events for the MRL/lpr model. A total of 200,000-500,000 events were collected per tube/sample. […]
as §3

[3] = test system: ASCs specific for chromatin; assay: Anti-chromatin antibody secreting B-cell Elispot, NZM spleen; details: NZM mice; CTX 50 mg/kg once weekly ip
Procedure: as §1

## O=P1(N(CCCl)CCCl)NCCCO1 (centres unmarked) [CTX, cyclophosphamide, reference compound]
IFNα
  serum IFNα reduction: Neither standard of care agent (i.e., CTX or DEX) exhibited a significant reduction
NZM mice [1]; CTX 50 mpk 1 × wk
  B: Glomerular Cellularity: ++ (‘++’ moderate (3)); also recorded: + (‘+’ mild (2)); also recorded: − (‘−’ no disease (1))
  C: Glomerular Necrosis: ++ (‘++’ moderate (3)) (2×) and − (‘−’ no disease (1)) (3×) and + (‘+’ mild (2)) (3×) and _
  D: Glomerular Sclerosis: +++ (‘+++’ high (4)); also recorded: − (‘−’ no disease (1)); also recorded: ++ (‘++’ moderate (3)); also recorded: + (‘+’ mild (2))
  E: Interstitial Infiltration: + (‘+’ mild (2)) (2×) and − (‘−’ no disease (1)) (5×) and +++ (‘+++’ high (4)) and _
  F: Tubular Atrophy: ++++ (‘++++’ severe disease (5)); also recorded: − (‘−’ no disease (1)); also recorded: + (‘+’ mild (2)); also recorded: ++ (‘++’ moderate (3))
  G: Interstitial Fibrosis: +++ (‘+++’ high (4)); also recorded: − (‘−’ no disease (1)); also recorded: + (‘+’ mild (2))
  H: Vasculitis: + (‘+’ mild (2)); also recorded: − (‘−’ no disease (1))
NZM mice [1]; CTX 50 mg/kg
  Glomerular Cellularity: 2.0
  Glomerular Necrosis: 1.77
  Glomerulosclerosis: 2.11
  Interstitial Fibrosis: 1.55
  Interstitial Infiltration: 1.55
  Tubular Atrophy: 2.00
  Vasculitis: 1.33
NZM mice [2]
  lung infiltrates: prevented lung infiltrates
Plasma cells
  levels of spleen plasma cells: the decrease was not significant
[3]
  ASCs specific for chromatin, decrease: 100%

## C[C@@H]1C[C@H]2[C@@H]3CCC4=CC(=O)C=C[C@]4(C)[C@@]3(F)[C@@H](O)C[C@]2(C)[C@@]1(O)C(=O)CO [Dex, dexamethasone, reference compound]
NZM mice [1]; Dex 1.5 mpk 3 × wk
  B: Glomerular Cellularity: ++ (‘++’ moderate (3)); also recorded: + (‘+’ mild (2)); also recorded: +++ (‘+++’ high (4))
  C: Glomerular Necrosis: ++ (‘++’ moderate (3)); also recorded: + (‘+’ mild (2)); also recorded: +++ (‘+++’ high (4))
  D: Glomerular Sclerosis: +++ (‘+++’ high (4)); also recorded: − (‘−’ no disease (1)); also recorded: ++ (‘++’ moderate (3)); also recorded: ++++ (‘++++’ severe disease (5))
  E: Interstitial Infiltration: ++ (‘++’ moderate (3)); also recorded: − (‘−’ no disease (1)); also recorded: +++ (‘+++’ high (4))
  F: Tubular Atrophy: +++ (‘+++’ high (4)); also recorded: − (‘−’ no disease (1))
  G: Interstitial Fibrosis: +++ (‘+++’ high (4)); also recorded: ++ (‘++’ moderate (3)); also recorded: − (‘−’ no disease (1))
  H: Vasculitis: + (‘+’ mild (2)); also recorded: − (‘−’ no disease (1)); also recorded: +++ (‘+++’ high (4))
NZM mice [1]; Dex 1.5 mg/kg
  Glomerular Cellularity: 3.0
  Glomerular Necrosis: 3.0
  Glomerulosclerosis: 3.42
  Interstitial Fibrosis: 2.71
  Interstitial Infiltration: 2.71
  Tubular Atrophy: 3.14
  Vasculitis: 2.42
